# Assay results as given in article PMC5486949 (SLAS discovery, 2017).
# Where a name gives a salt, the structure may show the parent alone. Read-outs that look alike come from different tables or passages of the source.
# How the values were obtained:
# ERRα [1] = test: ERR luciferase reporter gene assay, agonist mode; type: cell-based, human; conditions: for AC50 ERR ↑: agonist mode, 0 = inactive or inconclusive; for AC50: read-out: AC50 ERR ↑
# PGC-1α/ERRα [2] = test: PGC/ERR luciferase reporter gene assay, agonist mode; type: cell-based, human; conditions: for AC50 PGC-ERR ↑: agonist mode, 0 = inactive or inconclusive; for EC50 / AC50: Homo sapiens; for EC50: read-out: PGC-1α/ERRα (Agonist) EC50; for AC50: read-out: AC50 PGC-ERR ↑
# [3] = tested on: aryl hydrocarbon receptor (AhR); conditions: cited from earlier work
# PGC-1α/ERRα [4] = test: PGC/ERR luciferase reporter gene assay, antagonist mode; type: cell-based, human; conditions: for IC50: read-out: PGC-1α/ERRα (Antagonist) IC50; for AC50: read-out: AC50 PGC/ERR ↓
# ERRα [5] = test: ERR luciferase reporter gene assay, antagonist mode; type: cell-based, human; conditions: for IC50 / AC50: Homo sapiens; for IC50: read-out: ERRα (Antagonist) IC50; for AC50: read-out: AC50 ERR↓
# ERR cell line (HEK293T) = test: Cell viability assay multiplexed with ERR antagonist mode assay; type: cell-based, human; conditions: read-out: ERRα (Viability) IC50
# [6] = tested on: PGC/ERR cell line (HEK293T); test: Cell viability assay multiplexed with PGC/ERR antagonist mode assay; type: cell-based, human; conditions: read-out: PGC-1α/ERRα (Viability) IC50
# [7] = tested on: ERR and PGC/ERR cell lines; test: Cell viability; conditions: agonist mode, ERR and PGC/ERR lines (Fig. 3A,B)
# [8] = read-out: ERRα (Agonist) EC50, LOPAC qHTS, dash = inconclusive or no activity
# [9] = Homo sapiens, read-out: ERRα (Agonist) EC50
# [10] = antagonist mode, 0 = inactive or inconclusive
molecule,measurement,setting,value
6-Bromoindirubin-3-oxime,AC50 ERR ↑,ERRα [1],5.78 log10(M)*–1
same,EC50,ERRα [1]; [8],1.68 µM
same,AC50 PGC-ERR ↑,PGC-1α/ERRα [2],5.93 log10(M)*–1
same,AC50 AhR ↑,[3],5.48 log10(M)*–1
Nc1nc(Nc2ccccc2)nc2c1ncn2[C@@H]1O[C@H](CO)[C@@H](O)[C@H]1O [2-Phenylaminoadenosine],EC50,PGC-1α/ERRα [2],1.68 µM
"Fc1cccc(C=NN=Cc2cccc(F)c2)c1 [3,3 ′-Difluorobenzaldazine]",EC50,ERRα [1]; [8],13.3 µM
Nc1nccc2c1ncn2[C@@H]1O[C@H](CO)[C@@H](O)[C@H]1O [3-Deazaadenosine],IC50,PGC-1α/ERRα [4]; Homo sapiens,16.8 µM
"Brc1c(Br)c(Br)c2[nH]cnc2c1Br [4,5,6,7-Tetrabromobenz-imidazole]",IC50,ERRα [5],16.8 µM
"Brc1c(Br)c(Br)c2[nH]nnc2c1Br [4,5,6,7-Tetrabromobenzo-triazole]",AC50,ERRα [5],20.9 µM
same,IC50,ERRα [5],18.8 µM
same,AC50,PGC-1α/ERRα [4]; Homo sapiens,20.9 µM
same,IC50,PGC-1α/ERRα [4]; Homo sapiens,21.1 µM
Nc1ccc(N=Nc2ccccc2)cc1 [4-Aminoazobenzene],EC50,ERRα [1]; [9],10.9 µM
Cc1cccc(C#Cc2ccccc2)n1 [6-Methyl-2-(phenylethynyl)pyridine HCl],EC50,ERRα [1]; [9],13.3 µM
CC1=C(C)C(=O)C(CCCCC#CCCCC#CCO)=C(C)C1=O [AA-861],IC50,ERRα [5],12.6 µM
CC[n+]1c(/C=C/C=C2/N(C)c3ccccc3C2(C)C)sc2ccccc21 [AC-93253 iodide],IC50,PGC-1α/ERRα [4],0.42 µM
same,IC50,ERR cell line (HEK293T),8.41 µM
same,IC50,[6],3.76 µM
O=C1NC(=O)/C(=C/c2ccc3c(c2)OC(F)(F)O3)S1 [AS 604850],EC50,ERRα [1]; [8],3.16 µM
CCCCC[C@H](CC(=O)NO)C(=O)N[C@H](C(=O)N1CCC[C@H]1CO)C(C)C [Actinonin],IC50,PGC-1α/ERRα [4]; Homo sapiens,8.91 µM
Nc1nc(N)c2nc(CNc3ccc(C(=O)N[C@@H](CCC(=O)O)C(=O)O)cc3)cnc2n1 [Aminopterin],AC50,ERRα [5],0.0468 µM
same,IC50,ERRα [5],0.05 µM
same,AC50,PGC-1α/ERRα [4]; Homo sapiens,0.0589 µM
same,IC50,PGC-1α/ERRα [4]; Homo sapiens,0.06 µM
COc1cc(NS(C)(=O)=O)ccc1Nc1c2ccccc2nc2ccccc12 [Amsacrine hydrochloride],IC50,"ERR cell line (HEK293T); Homo sapiens, HEK-293T",23.7 µM
O=c1cc(-c2ccc(O)cc2)oc2cc(O)cc(O)c12 [Apigenin],AC50,PGC-1α/ERRα [2],2.34 µM
same,AC50 AhR ↑,[3],5.28 log10(M)*–1
CO[C@H]1O[C@@H]2O[C@@]3(C)CC[C@H]4[C@H](C)CC[C@@H]([C@H]1C)[C@@]24OO3 [Artemether],AC50,ERRα [5],0.525 µM
same,IC50,ERRα [5],0.53 µM
same,AC50,PGC-1α/ERRα [4]; Homo sapiens,1.05 µM
same,IC50,PGC-1α/ERRα [4]; Homo sapiens,0.75 µM
COc1ccc(-c2cc3nccn3c(Nc3ncccc3C(N)=O)n2)cc1OC.Cl.O [BAY 61-3606 hydrochloride hydrate],AC50 ERR↓,ERRα [5]; [10],5.53 log10(M)*–1
same,AC50 PGC/ERR ↓,PGC-1α/ERRα [4]; [10],5.63 log10(M)*–1
Nc1ccc(-c2ccc3ccccc3n2)cc1 [BF-170 hydrochloride],AC50 ERR ↑,ERRα [1],5.58 log10(M)*–1
same,EC50,ERRα [1]; [8],2.66 µM
same,AC50 PGC-ERR ↑,PGC-1α/ERRα [2],5.78 log10(M)*–1
Cc1ccc(S(=O)(=O)/C=C/C#N)cc1 [Bay 11-7082],EC50,ERRα [1]; [8],16.8 µM
C[C@H]1CCC/C=C/[C@@H]2C[C@H](O)C[C@H]2[C@H](O)/C=C/C(=O)O1 [Brefeldin A],IC50,ERRα [5],1.5 µM
O=C(/C=C/c1ccc(O)c(O)c1)OCCc1ccccc1 [Caffeic acid phenethyl ester],EC50,PGC-1α/ERRα [2],11.9 µM
O=c1c(-c2ccc(O)cc2)coc2cc(O)ccc12 [Daidzein],AC50,ERRα [1]; Homo sapiens,13.2 µM
same,EC50,ERRα [1]; [9],13.3 µM
same,AC50,PGC-1α/ERRα [2],20.9 µM
C#C[C@]1(O)CC[C@H]2[C@@H]3CCC4=Cc5oncc5C[C@]4(C)[C@H]3CC[C@@]21C [Danazol],IC50,ERRα [5],15 µM
OCCN(CCO)c1nc(N2CCCCC2)c2nc(N(CCO)CCO)nc(N3CCCCC3)c2n1 [Dipyridamole],IC50,ERRα [5],11.9 µM
O=c1cc(-c2ccccc2)oc2ccccc12 [Flavone],EC50,ERRα [1]; [9],9.69 µM
C=C[C@@]1(C)CC(=O)[C@]2(O)[C@@]3(C)[C@@H](O)CCC(C)(C)[C@@H]3[C@H](O)[C@H](OC(C)=O)[C@@]2(C)O1 [Forskolin],EC50,PGC-1α/ERRα [2],1.33 µM
O=c1c(-c2ccc(O)cc2)coc2cc(O)cc(O)c12 [Genistein],EC50,"ERRα [1]; Homo sapiens, 18 h, read-out: EC50, ERRα induction, assay optimization, 2000 cells/well, 18 h",3.33 µM
same,EC50,"ERRα [1]; Homo sapiens, 18 h, read-out: EC50, ERRα induction, assay optimization, 3000 cells/well, 18 h",3.23 µM
same,AC50,ERRα [1]; Homo sapiens,2.95 µM
same,AC50,PGC-1α/ERRα [2],3.31 µM
same,cytotoxicity at concentrations of outfitted points of agonist curves,[7],cytotoxicity did not appear to be the direct cause for the outfitted points
NNc1nncc2ccccc12 [Hydralazine hydrochloride],EC50,ERRα [1]; [9],0.75 µM
COc1ccc(/C=C2\COc3ccc(C)cc3C2=O)cc1O [IMS2186],EC50,ERRα [1]; [8],1.06 µM
